{"source": "patent US11298363B2", "about": "“Triazolobenzazepines as vasopressin V1a receptor antagonists” (RICHTER GEDEON NYRT., priority 2017, dated 2022)", "origin": "cited, not measured here", "key": {"V1aR [1]": {"molecular_target": "T1, V1aR (Homo sapiens, UniProt P37288)", "conditions": "cited from earlier work"}, "human V1a receptor": {"molecular_target": "human V1a receptor (Homo sapiens, UniProt P37288)", "sequence (P37288 whole entry)": "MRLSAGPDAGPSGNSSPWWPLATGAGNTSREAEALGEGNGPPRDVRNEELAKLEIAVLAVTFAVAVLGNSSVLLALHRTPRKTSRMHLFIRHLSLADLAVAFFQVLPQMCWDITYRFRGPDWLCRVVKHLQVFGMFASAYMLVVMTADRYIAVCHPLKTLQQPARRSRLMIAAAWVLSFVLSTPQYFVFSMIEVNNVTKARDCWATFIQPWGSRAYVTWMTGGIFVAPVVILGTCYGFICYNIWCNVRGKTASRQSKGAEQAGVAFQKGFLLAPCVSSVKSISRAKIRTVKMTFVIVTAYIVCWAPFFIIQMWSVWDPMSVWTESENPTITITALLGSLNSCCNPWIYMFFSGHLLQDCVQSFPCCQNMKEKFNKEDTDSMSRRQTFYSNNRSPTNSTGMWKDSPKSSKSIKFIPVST", "conditions": "cited from earlier work"}, "[2]": {"conditions": "rats; cited from earlier work"}, "V1aR [3]": {"molecular_target": "T1, V1aR", "conditions": "humans, Phase 1; cited from earlier work"}}, "data": [{"smiles": "CN1Cc2cc(Cl)ccc2-n2c(nnc2C2CCN(c3ccccn3)CC2)C1", "note": "[PF-184563]", "values": [{"measurement": "V1aR antagonism", "setting": "V1aR [1]", "value": "efficient V1aR antagonists"}]}, {"smiles": "CN(Cc1cccc(C(F)(F)F)c1)C(=O)[C@@H](CC(=O)N1CCC(N2CCCCC2)CC1)N1C(=O)[C@@H](N2C(=O)OC[C@@H]2c2ccccc2)[C@H]1/C=C/c1ccccc1", "note": "[SRX-251]", "values": [{"measurement": "activity on the human V1a receptor", "setting": "human V1a receptor", "value": "active"}, {"measurement": "brain level relative to effective concentrations detected in the binding assay", "setting": "[2]", "value": "approximately 100 fold"}]}, {"smiles": "CN(C)CCn1cc(C(=O)N2CCC3(CC2)OCc2ccccc23)c2ccc(Cl)cc21", "note": "[RO5028442]", "values": [{"measurement": "orientation of eye-gaze pattern", "setting": "V1aR [3]", "value": "positive effect"}]}]}
